From publication PMC9487510, “A Novel Oral GyrB/ParE Dual Binding Inhibitor Effective against Multidrug-Resistant Neisseria gonorrhoeae and Other High-Threat Pathogens” (Antimicrobial Agents and Chemotherapy, 2022)
Converted amounts (≈) assume the structure as drawn. “And” between values parts separate entries of the source, which are not always exact repeats. Identical values can stand only once. Like-named read-outs stand apart in the source and are kept apart here.

Assays:
S. aureus = conditions: organism not named in the sentence (context MRSA/S. aureus); cited from earlier work
N. gonorrhoeae = conditions: QC strain ATCC 49926; cited from earlier work
E. coli = test system: E. coli; parameters: method as in PMID 28483959, PMID 31315953; conditions: cited from earlier work
[1] = test system: Neisseria gonorrhoeae strain H041; assay: Estradiol-treated mouse model of cervico-vaginal infection, strain H041; assay type: in vivo, mouse (BALB/c); conditions: for percentage of mice colonized over 8 culture days after treatment: vs vehicle
C. difficile BAA-1805 = assay: Hamster C. difficile colitis model; assay type: in vivo, Golden Syrian hamster
[2] = Kinetic aqueous solubility; assay type: physicochemical
[3] = Mouse pharmacokinetics of JSF-2659; assay type: in vivo; conditions: oral administration in mice; data not shown
[4] = Liver microsome stability, mouse; assay type: in vitro ADME; conditions: male, CD-1, mouse, liver microsomes, pH 7.4
Method: Liver microsome stability assays were performed by BioDuro Inc. Human and mouse (CD-1 male) liver microsomes were used. […] Next, 50 μL of reaction buffer was added to solution and mixed via pipetting up and down 6 times. At each time point of 0, 30, and 60 min, an aliquot of 20 μL was removed from each tube. Liver microsomes (LM) working solution was prepared in 0.05 M phosphate reaction buffer (pH = 7.4) to a final concentration of 1.27 mg/mL. NADPH solution was prepared in 0.05 M phosphate buffer to afford a 5 mM buffer solution. […] After vortexing and incubating for 5 min (37°C), 50 μL of NADPH solution was added and mixed via pipetting. At each time point of 0, 5, 15, 30, and 60 min, an aliquot of 20 μL was removed from each tube. Next, 250 μL of quenching solution was aliquoted to quench the reaction, which was then vortexed for 1 min and placed on ice for 40 min. After centrifugation at 4,000 × g for 15 min, 100 μL of supernatant was transferred using a multichannel pipette to 0.65-mL tubes. Samples were diluted with MeOH: H2O (1:1) as necessary. Samples were analyzed by high-pressure liquid chromatography coupled to tandem mass spectrometry (LC/MS/MS) performed on a Sciex Applied Biosystems Qtrap 4000 triple-quadrupole mass spectrometer coupled to a Shimadzu HPLC system to quantify the remaining compound. Data were processed using Analyst software (version 1.4.2; Applied Biosystems Sciex). […] Metabolite identification on the microsomal extracts was performed using a Q-Exactive HRMS coupled with an Ultimate 3000 HPLC system and a Kinetix C18 2.1 × 50-mm 2.6-μm HPLC column.

[5] = test system: N. gonorrhoeae (ATCC 700825); assay: Intravaginal infection model, ovariectomized BALB/c mice, strain ATCC 700825; assay type: in vivo, mouse (BALB/c); conditions: for killing effect relative to the baseline group: 26, 76 and 170 h after infection; for killing effect (bacterial counts in vaginal lavage): 26 h postinfection
S. aureus VRSA, VRS-2 = assay: Neutropenic murine thigh infection model; assay type: in vivo, mouse (ICR); conditions: 26 h after infection
MRSA = assay: MIC, in vitro susceptibility testing (CLSI); assay type: cell-based, Staphylococcus aureus
MRSE = assay: MIC, in vitro susceptibility testing (CLSI); assay type: cell-based, Staphylococcus epidermidis
C. difficile = assay: MIC, toxigenic C. difficile panel (CLSI); assay type: cell-based, Clostridioides difficile; conditions: for MIC: Clostridioides difficile
VISA = assay: MIC, in vitro susceptibility testing (CLSI); assay type: cell-based, Staphylococcus aureus
VRSA = conditions: cited from earlier work

For `O=c1ccc2ncc(=O)n3c2n1C[C@H]3CN1CCC(NCc2cc3c(cn2)OCCC3)CC1` [Gepotidacin], the MIC90 (S. aureus) is given as 0.5 µg/mL (≈ 1.11 µM), the “modal MIC” value (N. gonorrhoeae) is given as 0.5 µg/mL and the MIC (E. coli) is given as 4 µg/mL (≈ 8.92 µM).

In the case of `CNc1cc(F)cc2c1[nH]c1nc(Oc3cnc(C)nc3)nc(N3CCC4(CC3)CO[C@@H](COP(=O)(O)O)C4)c12` [JSF-2659], the “percentage of mice colonized over 8 culture days after treatment” value (shortened to “percentage of mice colonized”) ([1]; 75 mg/kg TID (q 6 h) PO) is reported as “significant reduction in the percentage of mice colonized”, the “percentage of mice colonized” value ([1]; 250 mg/kg QD PO) is reported as “significant reduction in the percentage of mice colonized” and the “percentage of mice colonized” value ([1]; 250 mg/kg TID (q 6 h) PO) is reported as “significant reduction in the percentage of mice colonized”. The “average CFU/mL recovered after 48 h of treatment” value ([1]; 250 mg/kg TID PO, vs vehicle (P = 0.058)) was “significantly reduced compared to the vehicle control”, the “average CFU per mL of vaginal swab suspension over time” value ([1]; 250 mg/kg TID PO, P = 0.004) was “significantly different than the vehicle control group” and the “survival, 14-day observation” value (C. difficile BAA-1805; 20 mg/kg PO BID for 5 days) was 100%. For the same compound, the “survival, 14-day observation” value (C. difficile BAA-1805; 100 mg/kg PO BID for 5 days) was 100%, the “survival, 14-day observation” value (C. difficile BAA-1805; 250 mg/kg PO BID for 5 days) was 100% and the “body weight change during the 14-day observation period” value (C. difficile BAA-1805; 20, 100 and 250 mg/kg PO BID, relative to the positive controls) was “No significant loss of body weight”. For the same compound, the “increase of solubility over the parent drug candidate” value ([2]; JSF-2659 vs JSF-2414) was 764 fold, the solubility kinetic ([2]; aqueous medium (not further specified)) was 440 µM (≈ 252 µg/mL) and the “conversion by host phosphatases to JSF-2414” value [3] was over 99%. The microsomal CLint at 1 μM ([4]; read-out: MLM Clint) was 0.5 µL/min/mg, the half-life at 1 μM ([4]; read-out: MLM t1/2) was 1390 min and the “killing effect relative to the baseline group” value ([5]; IM 75 mg/kg QD) was over 3 log10. For the same compound, the “killing effect relative to the baseline group” value ([5]; IM 250 mg/kg QD) was over 3 log10, the “killing effect relative to the baseline group” value ([5]; PO 75 mg/kg TID) was over 3 log10 and the “killing effect relative to the baseline group” value ([5]; PO 250 mg/kg QD) was over 3 log10. For the same compound, the “killing effect relative to the baseline group” value ([5]; PO 250 mg/kg TID) was over 3 log10, the “killing effect (bacterial counts in vaginal lavage)” value ([5]; IM 75 mg/kg QD, relative to control) was 3.51 log10 and the “killing effect (bacterial counts in vaginal lavage)” value ([5]; IM 250 mg/kg QD, relative to control) was 3.39 log10. For the same compound, the “killing effect (bacterial counts in vaginal lavage)” value ([5]; PO 75 mg/kg QD, relative to baseline group) was 1 log10, the “killing effect (bacterial counts in vaginal lavage)” value ([5]; PO 75 mg/kg TID, relative to control) was 3.51 log10 and the “killing effect (bacterial counts in vaginal lavage)” value ([5]; PO 250 mg/kg QD, relative to control) was 3.51 log10. For the same compound, the “killing effect (bacterial counts in vaginal lavage)” value ([5]; PO 250 mg/kg TID, relative to control) was 3.51 log10, the “reduction of burden to the limit of detection” value ([5]; dose-dependent oral administration) was ~ 4.5 log10 and the “bacterial count reduction in thigh relative to vehicle control” value (S. aureus VRSA, VRS-2; PO 100 mg/kg QD) was 0.95 log10. For the same compound, the “bacterial count reduction in thigh relative to vehicle control” value (S. aureus VRSA, VRS-2; PO 100 mg/kg TID) was 4.84 log10, the “bacterial count reduction in thigh relative to vehicle control” value (S. aureus VRSA, VRS-2; PO 250 mg/kg QD) was 4.42 log10 and the “bacterial count reduction in thigh relative to vehicle control” value (S. aureus VRSA, VRS-2; PO 250 mg/kg TID, 250 mg/kg) was 6.26 log10 and > 6.2 log10.

With `CN[C@H](CC(C)C)C(=O)N[C@H]1C(=O)N[C@@H](CC(N)=O)C(=O)N[C@H]2C(=O)N[C@H]3C(=O)N[C@H](C(=O)N[C@H](C(=O)O)c4cc(O)cc(O)c4-c4cc3ccc4O)[C@H](O)c3ccc(c(Cl)c3)Oc3cc2cc(c3O[C@@H]2O[C@H](CO)[C@@H](O)[C@H](O)[C@H]2O[C@H]2C[C@](C)(N)[C@H](O)[C@H](C)O2)Oc2ccc(cc2Cl)[C@H]1O` [Van, vancomycin] the MIC (MRSA) was 1.0 µg/mL (≈ 0.69 µM), the MIC range (MRSA) was 0.5 to 1 µg/mL and the MIC (MRSA; Staphylococcus aureus, MRSA) was 0.5 µg/mL (≈ 0.345 µM). It also gave an MIC range (MRSE) of 0.5 to 1 µg/mL, an MIC (MRSE; Staphylococcus epidermidis, MRSE) of 0.5 µg/mL (≈ 0.345 µM) and an MIC range (C. difficile) of 0.5 to 1 µg/mL. The MIC (C. difficile) was 1 µg/mL (≈ 0.69 µM), the MIC (C. difficile; BAA1805) was 0.5 µg/mL (≈ 0.345 µM) and the MIC (C. difficile; BAA1808) was 0.5 µg/mL (≈ 0.345 µM). For the same compound, the MIC (C. difficile; BAA1874) was 0.5 µg/mL (≈ 0.345 µM), the MIC (C. difficile; BAA1875) was 0.5 µg/mL (≈ 0.345 µM) and the survival (C. difficile BAA-1805; 20 mg/kg PO BID for 5 days) was 100%. The MIC range (VISA) was 3.125 to 12.5 µg/mL, the MIC (VRSA) was over 64 µg/mL and the “bacterial count reduction in thigh” value (S. aureus VRSA, VRS-2; SC 100 mg/kg TID) was 2.09 log10.
